Measurements taken from patent US20100093760A1, “METHODS FOR IDENTIFYING COMPOUNDS THAT MODULATE CELL SIGNALING AND METHODS EMPLOYING SUCH COMPOUNDS” (The General Hospital Corporation, priority 2006, published 2010).
Entries after “also recorded” stand apart in the source; their conditions may differ.

Legend:
[1] = tested on: hepatic SMAD1/5/8 phosphorylation; assay: Iron-dextran challenge: hepatic SMAD1/5/8 phosphorylation in mice; format: in vivo, C57BL/6 mice; details: 10 mg/kg co-injected with iron-dextran, intravenous, 1 hour
C2C12 cells = assay: BMP-induced alkaline phosphatase activity (osteogenic differentiation) in C2C12 cells; format: cell-based
Method: C2C12 cells were seeded into 96 well plates at 2000 cells per well in DMEM supplemented with 2% FBS. Wells were treated in quadruplicate with BMP ligands and Compound C/Dorsomorphin or vehicle. Cells were harvested after 5 days in culture with 50 μl Tris buffered saline/1% Triton X-100. Lysates were added to p-nitro-phenylphosphate reagent in 96-well plates (Sigma) for 1 hour, and alkaline phosphatase activity expressed as absorbance at 405 nm. Cell viability and quantity were measured by Cell-titer Glo (Promega) and binding of nuclear dye CyQuant (Invitrogen), respectively, using replicate wells treated identically to those used for alkaline phosphatase measurements.

[2] = tested on: murine hepcidin (HAMP1) mRNA; assay: Basal hepatic hepcidin mRNA in mice; format: in vivo; details: C57BL/6 mice, single tail vein injection 10 mg/kg, 6 hours
zebrafish hepcidin mRNA = assay: Iron-dextran challenge: hepatic hepcidin mRNA in adult zebrafish; format: in vivo; details: 23 μg/g co-injected with iron-dextran, 3 hours
caALK5 = target: T1, caALK5 (Homo sapiens, UniProt P36897, T204D); assay: Constitutively-active ALK5 PAI-1 promoter reporter (CAGA-Luc); format: cell-based; details: PASMCs, up to 20 μM
T1 construct: expressed in transfected cells; host or cells: murine PASMCs, transient transfection
T1 sequence (P36897 34-503 T204D): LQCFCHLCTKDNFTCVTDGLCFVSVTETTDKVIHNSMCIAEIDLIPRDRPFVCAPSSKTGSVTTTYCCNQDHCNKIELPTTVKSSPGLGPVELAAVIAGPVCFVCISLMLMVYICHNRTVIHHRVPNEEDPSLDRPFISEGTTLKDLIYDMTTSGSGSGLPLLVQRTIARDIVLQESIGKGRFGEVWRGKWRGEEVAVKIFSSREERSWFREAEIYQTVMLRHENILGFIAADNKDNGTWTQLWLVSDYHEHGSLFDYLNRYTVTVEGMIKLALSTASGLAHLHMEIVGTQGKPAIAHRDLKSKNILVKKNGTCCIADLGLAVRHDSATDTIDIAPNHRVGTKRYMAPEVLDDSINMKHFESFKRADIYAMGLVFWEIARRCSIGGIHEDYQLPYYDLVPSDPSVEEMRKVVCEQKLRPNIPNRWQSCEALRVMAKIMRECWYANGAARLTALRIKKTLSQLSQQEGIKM
Method: Murine PASMCs grown to 50% confluence in 6-well plates were transiently transfected with 0.3 μg Id1 promoter luciferase reporter construct (BRE-Luc, Dr. Peter ten Dijke, Leiden University Medical Center, Netherlands (Korchynskyi et al., J. Biol. Chem. 277:4883-4891, 2002)) in combination with 0.6 μg plasmids expressing constitutively-active forms of BMP type I receptors (caALK2, caALK3, or caALK6, kindly provided by Dr. Kohei Miyazono, University of Tokyo, Japan (Fujii et al., Mol. Biol. Cell 10:3801-3813, 1999)), using Fugene6 (Roche). To assess Activin and […] type I receptor function, PASMCs were transiently transfected with 0.3 μg PAI-1 promoter luciferase reporter construct (CAGA-Luc, Dr. Peter ten Dijke (Dennler et al., Embo J. 17:3091-3100, 1998)) in combination with 0.6 μg plasmids expressing constitutively active forms of type I receptors (caALK4, caALK5, and caALK7, also provided by Dr. Kohei Miyazono (Okadome et al., J. Biol. Chem. 271:21687-21690, 1996; Shimizu et al., Genes Cells 3:125-134, 1998)). For both reporters, 0.2 μg pRL-TK Renilla luciferase (Promega) was used to control for transfection efficiency. […] Cell extracts were harvested, and relative promoter activity quantitated by the ratio of firefly to Renilla luciferase activity using the dual luciferase assay kit (Promega). […] Hepcidin promoter activity was measured by luciferase assay as above.

caALK3 = target: T2, caALK3 (Homo sapiens, UniProt P36894, Q233D); assay: Constitutively-active ALK3 transfection: phospho-SMAD1/5/8 immunoblot and Id1 promoter (BRE-Luc); format: cell-based; details: BMPR-II-deficient PASMCs
T2 construct: expressed in transfected cells; host or cells: murine PASMCs (BMPR-II-deficient), transient transfection
T2 sequence (P36894 24-532 Q233D): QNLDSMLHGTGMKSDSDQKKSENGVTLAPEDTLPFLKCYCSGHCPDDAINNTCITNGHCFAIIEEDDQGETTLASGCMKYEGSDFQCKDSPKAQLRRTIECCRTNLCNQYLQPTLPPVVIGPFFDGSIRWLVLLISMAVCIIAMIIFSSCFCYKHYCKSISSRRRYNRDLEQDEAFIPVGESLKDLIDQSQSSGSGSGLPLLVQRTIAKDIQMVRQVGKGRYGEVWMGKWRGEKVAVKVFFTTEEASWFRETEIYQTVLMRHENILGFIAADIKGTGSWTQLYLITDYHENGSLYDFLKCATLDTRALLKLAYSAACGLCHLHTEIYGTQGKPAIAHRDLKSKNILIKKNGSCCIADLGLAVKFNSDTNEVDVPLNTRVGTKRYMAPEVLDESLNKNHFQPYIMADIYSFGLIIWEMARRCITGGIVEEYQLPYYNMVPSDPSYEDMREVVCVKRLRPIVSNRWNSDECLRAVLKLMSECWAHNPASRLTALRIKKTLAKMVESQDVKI
Method: Cell extracts or tissues were mechanically homogenized in SDS-lysis buffer (62.5 mM Tris-HCl (pH 6.8), 2% SDS, 10% glycerol, 50 mM DTT, 0.01% bromophenol blue); separated by SDS-PAGE; immunoblotted with anti-phospho-SMAD1/5/8, anti-phospho-SMAD2 (Cell Signaling, Beverly, Mass.), or anti-α-tubulin (Upstate/Millipore, Billerica, Mass.) Abs; and visualized using ECL Plus (GE Healthcare, Piscataway, N.J.). Levels of immunoreactive proteins were quantitated by ImageQuant software on a Storm phosphorimager (GE Healthcare).
Murine PASMCs grown to 50% confluence in 6-well plates were transiently transfected with 0.3 μg Id1 promoter luciferase reporter construct (BRE-Luc, Dr. Peter ten Dijke, Leiden University Medical Center, Netherlands (Korchynskyi et al., J. Biol. Chem. 277:4883-4891, 2002)) in combination with 0.6 μg plasmids expressing constitutively-active forms of BMP type I receptors (caALK2, caALK3, or caALK6, kindly provided by Dr. Kohei Miyazono, University of Tokyo, Japan (Fujii et al., Mol. Biol. Cell 10:3801-3813, 1999)), using Fugene6 (Roche). […] Cell extracts were harvested, and relative promoter activity quantitated by the ratio of firefly to Renilla luciferase activity using the dual luciferase assay kit (Promega). […] Hepcidin promoter activity was measured by luciferase assay as above.

[3] = tested on: hepatic SMAD1/5/8 phosphorylation; assay: Iron-dextran challenge: hepatic SMAD1/5/8 phosphorylation in adult zebrafish; format: in vivo; parameters: dose or concentration left out as unconfirmed; details: co-injection with iron-dextran, intraperitoneal, 1 hour
MAPK p38 = assay: Immunoblot of BMP4-mediated MAPK p38 phosphorylation in PASMCs; format: cell-based, murine; details: BMP4 20 ng/ml, 0.2-40 μM

c1cc(-c2cnn3cc(-c4ccc(OCCN5CCCCC5)cc4)cnc23)ccn1 [Compound C/Dorsomorphin]
effect on iron-mediated increase in hepatic SMAD1/5/8 phosphorylation [1]: abolished; also recorded: did not exhibit an increase | inhibition of osteogenic differentiation compared with noggin (C2C12 cells; 4 μM vs noggin 100 ng/ml): more potent than that seen with pretreatment of cells with 100 ng/ml of noggin | effect on BMP4- or BMP6-induced alkaline phosphatase activity (osteogenic differentiation) (C2C12 cells; 4 μM, 5 days): completely inhibits; also recorded: almost completely abolished; also recorded: inhibited | liver hepcidin mRNA relative to controls [2]: one-third | effect on iron-dextran-induced hepatic hepcidin mRNA (zebrafish hepcidin mRNA): inhibited the increase; also recorded: not significantly different from dextran-treated fish | effect on caALK5-mediated PAI-1 promoter activity (CAGA-Luc) (caALK5): did not inhibit; also recorded: not decreased | effect on caALK3-induced increase in phospho-SMAD1/5/8 (caALK3; 10 μM, immunoblot): inhibited | effect on caALK3-mediated Id1 promoter activity (BRE-Luc) (caALK3; 0.25-10 μM): inhibited; also recorded: decreased | reduction of hepatic SMAD1/5/8 phosphorylation vs iron-dextran and vehicle [3]: ~3 fold | effect on BMP4-mediated phosphorylation of MAPK p38 (MAPK p38): without affecting MAPK p38 activation; also recorded: without inhibiting p38 activation; also recorded: did not affect; also recorded: does not exhibit significant inhibition
